Results as given in patent US20260027116A1, “Methods of Treating Chronic Graft-Versus-Host Disease Following Allogeneic Hematopoietic Stem Cell Transplantation” (Kadmon Corporation, LLC, priority 2022, published 2026).

Tested on: patients with cGVHD
Conditions: Cohort 1 200 mg QD

## CC(C)NC(=O)COc1cccc(-c2nc(Nc3ccc4[nH]ncc4c3)c3ccccc3n2)c1 [Belumosudil, 2-{3-[4-(1H-indazol-5-ylamino)-2-quinazolinyl]phenoxy}-N-(propan-2-yl) acetamide]
  Abdominal distension: # Events: 1
  Abdominal distension: Affected/At Risk (%): 1/17 (5.88%)
  Abdominal pain upper: # Events: 1
  Abdominal pain upper: Affected/At Risk (%): 1/17 (5.88%)
  Abdominal pain: # Events: 2
  Abdominal pain: Affected/At Risk (%): 2/17 (11.76%)
  Actinic keratosis: # Events: 0
  Actinic keratosis: Affected/At Risk (%): 0/17 (0%)
  Acute kidney injury: # Events: 4
  Acute kidney injury: Affected/At Risk (%): 1/17 (5.88%)
  Acute respiratory distress syndrome: # Events: 1
  Acute respiratory distress syndrome: Affected/At Risk (%): 1/17 (5.88%)
  Adrenal insufficiency: # Events: 2
  Adrenal insufficiency: Affected/At Risk (%): 1/17 (5.88%)
  Alanine aminotransferase increased: # Events: 12
  Alanine aminotransferase increased: Affected/At Risk (%): 6/17 (35.29%)
  All grade ALT/AST increased, No. (%): 11 (65)
  All grade Cough, No. (%): 1 (6)
  All grade Diarrhea, No. (%): 6 (35)
  All grade Dyspnea, No. (%): 3 (18)
  All grade Fatigue, No. (%): 6 (35)
  All grade Headache, No. (%): 4 (24)
  All grade Hypertension, No. (%): 5 (29)
  All grade Nausea, No. (%): 6 (35)
  All grade Peripheral edema, No. (%): 3 (18)
  All grade URI, No. (%): 9 (53)
  All-Cause Mortality, %: (11.76%)
  All-Cause Mortality, Affected/At Risk: 2/17
  Anaemia: # Events: 14
  Anaemia: Affected/At Risk (%): 5/17 (29.41%)
  Anal incontinence: # Events: 2
  Anal incontinence: Affected/At Risk (%): 1/17 (5.88%)
  Anxiety: # Events: 1
  Anxiety: Affected/At Risk (%): 1/17 (5.88%)
  Any AE, No. (%): 17 (100)
  Arthralgia: # Events: 1
  Arthralgia: Affected/At Risk (%): 1/17 (5.88%)
  Aspartate aminotransferase increased: # Events: 8
  Aspartate aminotransferase increased: Affected/At Risk (%): 5/17 (29.41%)
  Asthenia: # Events: 0
  Asthenia: Affected/At Risk (%): 0/17 (0%)
  Atelectasis: # Events: 1
  Atelectasis: Affected/At Risk (%): 1/17 (5.88%)
  Back pain: # Events: 0
  Back pain: Affected/At Risk (%): 0/17 (0%)
  Balance disorder: # Events: 0
  Balance disorder: Affected/At Risk (%): 0/17 (0%)
  Basal cell carcinoma: # Events: 0
  Basal cell carcinoma: Affected/At Risk (%): 0/17 (0%)
  Benign prostatic hyperplasia: # Events: 1
  Benign prostatic hyperplasia: Affected/At Risk (%): 1/17 (5.88%)
  Blepharitis: # Events: 1
  Blepharitis: Affected/At Risk (%): 1/17 (5.88%)
  Blister: # Events: 0
  Blister: Affected/At Risk (%): 0/17 (0%)
  Blood alkaline phosphatase increased: # Events: 6
  Blood alkaline phosphatase increased: Affected/At Risk (%): 4/17 (23.53%)
  Blood chloride decreased: # Events: 0
  Blood chloride decreased: Affected/At Risk (%): 0/17 (0%)
  Blood cholesterol increased: # Events: 2
  Blood cholesterol increased: Affected/At Risk (%): 1/17 (5.88%)
  Blood creatine increased: # Events: 0
  Blood creatine increased: Affected/At Risk (%): 0/17 (0%)
  Blood creatine phosphokinase increased: # Events: 1
  Blood creatine phosphokinase increased: Affected/At Risk (%): 1/17 (5.88%)
  Blood creatinine increased: # Events: 1
  Blood creatinine increased: Affected/At Risk (%): 1/17 (5.88%)
  Blood loss anaemia: # Events: 1
  Blood loss anaemia: Affected/At Risk (%): 1/17 (5.88%)
  Bronchial secretion retention: # Events: 0
  Bronchial secretion retention: Affected/At Risk (%): 0/17 (0%)
  Bronchitis: # Events: 1
  Bronchitis: Affected/At Risk (%): 1/17 (5.88%)
  Bronchoscopy: # Events: 1
  Bronchoscopy: Affected/At Risk (%): 1/17 (5.88%)
  Catheter site haemorrhage: # Events: 1
  Catheter site haemorrhage: Affected/At Risk (%): 1/17 (5.88%)
  Chills: # Events: 1
  Chills: Affected/At Risk (%): 1/17 (5.88%)
  Chronic kidney disease: # Events: 1
  Chronic kidney disease: Affected/At Risk (%): 1/17 (5.88%)
  Conjunctival haemorrhage: # Events: 0
  Conjunctival haemorrhage: Affected/At Risk (%): 0/17 (0%)
  Conjunctivitis: # Events: 0
  Conjunctivitis: Affected/At Risk (%): 0/17 (0%)
  Constipation: # Events: 1
  Constipation: Affected/At Risk (%): 1/17 (5.88%)
  Contrast media allergy: # Events: 0
  Contrast media allergy: Affected/At Risk (%): 0/17 (0%)
  Contusion: # Events: 2
  Contusion: Affected/At Risk (%): 2/17 (11.76%)
  Corneal abrasion: # Events: 1
  Corneal abrasion: Affected/At Risk (%): 1/17 (5.88%)
  Corneal infection: # Events: 0
  Corneal infection: Affected/At Risk (%): 0/17 (0%)
  Cough: # Events: 1
  Cough: Affected/At Risk (%): 1/17 (5.88%)
  Death, No. (%): 0
  Decreased appetite: # Events: 4
  Decreased appetite: Affected/At Risk (%): 2/17 (11.76%)
  Dehydration: # Events: 2
  Dehydration: Affected/At Risk (%): 2/17 (11.76%)
  Depression: # Events: 0
  Depression: Affected/At Risk (%): 0/17 (0%)
  Diarrhoea: # Events: 9
  Diarrhoea: Affected/At Risk (%): 6/17 (35.29%)
  Dizziness: # Events: 0
  Dizziness: Affected/At Risk (%): 0/17 (0%)
  Drug eruption: # Events: 0
  Drug eruption: Affected/At Risk (%): 0/17 (0%)
  Drug-related AE, No. (%): 8 (47)
  Drug-related SAE, No. (%): 0
  Dry eye: # Events: 3
  Dry eye: Affected/At Risk (%): 2/17 (11.76%)
  Dry skin: # Events: 1
  Dry skin: Affected/At Risk (%): 1/17 (5.88%)
  Dyspepsia: # Events: 0
  Dyspepsia: Affected/At Risk (%): 0/17 (0%)
  Dysphagia: # Events: 1
  Dysphagia: Affected/At Risk (%): 1/17 (5.88%)
  Dyspnoea exertional: # Events: 1
  Dyspnoea exertional: Affected/At Risk (%): 1/17 (5.88%)
  Dyspnoea: # Events: 2
  Dyspnoea: Affected/At Risk (%): 2/17 (11.76%)
  Embolism: # Events: 1
  Embolism: Affected/At Risk (%): 1/17 (5.88%)
  Enamel anomaly: # Events: 0
  Enamel anomaly: Affected/At Risk (%): 0/17 (0%)
  Epidural lipomatosis: # Events: 1
  Epidural lipomatosis: Affected/At Risk (%): 1/17 (5.88%)
  Epstein-Barr virus infection: # Events: 1
  Epstein-Barr virus infection: Affected/At Risk (%): 1/17 (5.88%)
  Erectile dysfunction: # Events: 4
  Erectile dysfunction: Affected/At Risk (%): 2/17 (11.76%)
  Eye irritation: # Events: 1
  Eye irritation: Affected/At Risk (%): 1/17 (5.88%)
  Eye pain: # Events: 0
  Eye pain: Affected/At Risk (%): 0/17 (0%)
  Eye pruritus: # Events: 0
  Eye pruritus: Affected/At Risk (%): 0/17 (0%)
  Fall: # Events: 2
  Fall: Affected/At Risk (%): 2/17 (11.76%)
  Fatigue: # Events: 7
  Fatigue: Affected/At Risk (%): 6/17 (35.29%)
  Flatulence: # Events: 0
  Flatulence: Affected/At Risk (%): 0/17 (0%)
  Flushing: # Events: 0
  Flushing: Affected/At Risk (%): 0/17 (0%)
  Fungal infection: # Events: 1
  Fungal infection: Affected/At Risk (%): 1/17 (5.88%)
  Gamma-glutamyltransferase increased: # Events: 9
  Gamma-glutamyltransferase increased: Affected/At Risk (%): 4/17 (23.53%)
  Gastric ulcer: # Events: 0
  Gastric ulcer: Affected/At Risk (%): 0/17 (0%)
  Gastrooesophageal reflux disease: # Events: 2
  Gastrooesophageal reflux disease: Affected/At Risk (%): 2/17 (11.76%)
  Generalised oedema: # Events: 1
  Generalised oedema: Affected/At Risk (%): 1/17 (5.88%)
  Genital infection fungal: # Events: 0
  Genital infection fungal: Affected/At Risk (%): 0/17 (0%)
  Glaucoma: # Events: 0
  Glucose urine present: # Events: 3
  Glucose urine present: Affected/At Risk (%): 2/17 (11.76%)
  Grade ≥3 AE, No. (%): 9 (53)
  Grade ≥3 ALT/AST increased, No. (%): 2 (12)
  Grade ≥3 Anemia, No. (%): 2 (12)
  Grade ≥3 Dyspnea, No. (%): 1 (6)
  Grade ≥3 Hyperglycemia, No. (%): 2 (12)
  Grade ≥3 Hypoxia, No. (%): 1 (6)
